# How the values were obtained:
# lambsquarters = experiment: Test C pre-/postemergence herbicide test; format: in vivo, Chenopodium album; conditions: preemergence
# How it was run: (§1)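 Visual ratings on a 0–100 scale (100 = complete control) made versus untreated controls after 12 to 14 greenhouse days. Test chemicals, formulated in surfactant-containing non-phytotoxic solvent, applied preemergence to planted seeds or postemergence to 1- to 4-leaf plants (2 to 18 cm).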
# barnyardgrass = experiment: Test B flooded paddy test; format: in vivo, Echinochloa crus-galli; conditions: 1000 g ai/ha, scale 0 to 100 (0 no effect, 100 complete control)
# How it was run: (§2)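 Visual control ratings, 0–100 versus untreated controls, taken after 13 to 15 days in the greenhouse. Blackgrass received a postemergence spray at the 1- to 4-leaf stage (2–18 cm); ducksalad, umbrella sedge and barnyardgrass were flooded-paddy treated at 2 leaves.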
# goosegrass = experiment: Test C pre-/postemergence herbicide test; format: in vivo, Eleusine indica; conditions: preemergence
# How it was run: as §1
# corn = experiment: Test C pre-/postemergence herbicide test; format: in vivo, Zea mays; conditions: preemergence
# How it was run: as §1
# johnsongrass = experiment: Test C pre-/postemergence herbicide test; format: in vivo, Sorghum halepense; conditions: preemergence
# How it was run: as §1
# ducksalad [1] = experiment: Test C flooded paddy test; format: in vivo, Heteranthera limosa; conditions: for Plant response rating, Ducksalad: 500 g ai/ha, visual rating after 12 to 14 days
# eastern black nightshade = experiment: Test C pre-/postemergence herbicide test; format: in vivo, Solanum ptycanthum; conditions: preemergence
# How it was run: as §1
# ducksalad [2] = experiment: Test B flooded paddy test; format: in vivo, Heteranthera limosa; conditions: 1000 g ai/ha, scale 0 to 100 (0 no effect, 100 complete control)
# How it was run: as §2
# velvetleaf = experiment: Test C pre-/postemergence herbicide test; format: in vivo, Abutilon theophrasti; conditions: preemergence
# How it was run: as §1
# rice = experiment: Test B flooded paddy test; format: in vivo, Oryza sativa; conditions: 1000 g ai/ha, scale 0 to 100 (0 no effect, 100 complete control)
# How it was run: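 Formulated test chemicals went onto postemergence plants measuring 2 to 18 cm, at one to four leaves. For the paddy assay, species had reached two leaves. Scoring took place 13–15 days later by eye, relative to untreated plants, using 0 for no effect up to 100 for full control.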
# cocklebur = experiment: Test C pre-/postemergence herbicide test; format: in vivo, Xanthium strumarium; conditions: for Cocklebur plant response rating: Preemergence, scale 0 to 100, 0 no effect, 100 complete control
# How it was run: as §1
# [3] = system: smallflower umbrella sedge; experiment: Test C flooded paddy test; format: in vivo, Cyperus difformis; conditions: for Plant response rating, Sedge, Umbrella: 500 g ai/ha, visual rating after 12 to 14 days
# [4] = 125 g ai/ha, scale 0 (no effect) to 100 (complete control), visual, 12 to 14 days
# [5] = 500 g ai/ha, scale 0 to 100 (0 no effect, 100 complete control), visual, 12 to 14 days
# [6] = 125 g ai/ha, scale 0 to 100 (0 no effect, 100 complete control)
# [7] = 250 g ai/ha, scale of 0 to 100, 0 is no effect, 100 is complete control
# [8] = scale 0 to 100 (0 no effect, 100 complete control)
# [9] = 62 g ai/ha, preemergence, scale 0 to 100
# [10] = 125 g ai/ha, scale 0 (no effect) to 100 (complete control), visual, 12 to 14 days, preemergence
# [11] = 250 g ai/ha, scale 0-100, preemergence
Structure (SMILES),"Plant response rating, Lambsquarters (lambsquarters; 62 g ai/ha, scale 0 to 100)","Plant response rating, Lambsquarters (lambsquarters; 250 g ai/ha, scale 0-100)",Barnyardgrass plant response rating (barnyardgrass),"Plant response rating, Goosegrass (goosegrass; 62 g ai/ha, scale 0 to 100)","Plant response rating, Goosegrass (goosegrass; 250 g ai/ha, scale 0-100)","Plant response rating, Corn (corn; 62 g ai/ha, scale 0 to 100)","Plant response rating, Corn (corn; 250 g ai/ha, scale 0-100)","Plant response rating, Johnsongrass (johnsongrass; 62 g ai/ha, scale 0 to 100)","Plant response rating, Johnsongrass (johnsongrass; 250 g ai/ha, scale 0-100)","Ducksalad plant response rating (ducksalad [1]; 62 g ai/ha, scale 0 to 100)",Ducksalad plant response rating (ducksalad [1]; [6]),Ducksalad plant response rating (ducksalad [1]; [7]),"Plant response rating, Ducksalad (ducksalad [1]; [8])","Plant response rating, Nightshade (eastern black nightshade; 62 g ai/ha, scale 0 to 100)","Plant response rating, Nightshade (eastern black nightshade; 250 g ai/ha, scale 0-100)",Ducksalad plant response rating (ducksalad [2]),"Plant response rating, Velvetleaf (velvetleaf; 62 g ai/ha, scale 0 to 100)","Plant response rating, Velvetleaf (velvetleaf; 250 g ai/ha, scale 0-100)",Rice plant response rating (rice),"Plant response rating, Cocklebur (cocklebur; [9])",other results
CCn1nc(C(C)(C)C)cc1C(=O)Nc1ccc(OC)c(OC)c1 [Compound 298],100,100,90,85,100,0,15,20,60,35,40,80,90,100,100,90,60,100,80,0,"Plant response rating, Lambsquarters (lambsquarters; [4]): 100; Plant response rating, Lambsquarters (lambsquarters; [5]): 100; Plant response rating, Goosegrass (goosegrass; [4]): 95; Plant response rating, Goosegrass (goosegrass; [5]): 100; Plant response rating, Corn (corn; [4]): 10; Plant response rating, Corn (corn; [5]): 30; Plant response rating, Johnsongrass (johnsongrass; [4]): 40; Plant response rating, Johnsongrass (johnsongrass; [5]): 90; Plant response rating, Nightshade (eastern black nightshade; [4]): 100; Plant response rating, Nightshade (eastern black nightshade; [5]): 100; Plant response rating, Velvetleaf (velvetleaf; [5]): 100; Plant response rating, Cocklebur (cocklebur; [10]): 0; Plant response rating, Cocklebur (cocklebur; [11]): 0; Cocklebur plant response rating (cocklebur; 500 g ai/ha): 0; Sedge, Umbrella plant response rating ([3]; 62 g ai/ha, scale 0 to 100): 0; Sedge, Umbrella plant response rating [3, 6]: 0; Sedge, Umbrella plant response rating [3, 7]: 70; Plant response rating, Sedge, Umbrella [3, 8]: 80"
CCNC(=O)c1ccc(F)c(NC(=O)c2cc(C3(C)CC3)nn2CC)c1 [Compound 300],100,100,90,85,100,30,35,60,95,75,80,85,90,100,100,90,5,5,90,5,"Plant response rating, Lambsquarters (lambsquarters; [4]): 100; Plant response rating, Goosegrass (goosegrass; [4]): 100; Plant response rating, Corn (corn; [4]): 30; Plant response rating, Johnsongrass (johnsongrass; [4]): 85; Plant response rating, Nightshade (eastern black nightshade; [4]): 100; Plant response rating, Cocklebur (cocklebur; [10]): 5; Plant response rating, Cocklebur (cocklebur; [11]): 5; Sedge, Umbrella plant response rating ([3]; 62 g ai/ha, scale 0 to 100): 80; Sedge, Umbrella plant response rating [3, 6]: 80; Sedge, Umbrella plant response rating [3, 7]: 85; Plant response rating, Sedge, Umbrella [3, 8]: 90"
CCn1nc(C2(C)CC2)cc1C(=O)Nc1cc(C(=O)N2CC=CC2)ccc1F [Compound 301],100,100,90,50,100,10,40,30,85,85,90,90,95,90,100,90,20,100,90,0,"Plant response rating, Lambsquarters (lambsquarters; [4]): 100; Plant response rating, Lambsquarters (lambsquarters; [5]): 100; Plant response rating, Goosegrass (goosegrass; [4]): 90; Plant response rating, Goosegrass (goosegrass; [5]): 100; Plant response rating, Corn (corn; [4]): 10; Plant response rating, Corn (corn; [5]): 45; Plant response rating, Johnsongrass (johnsongrass; [5]): 95; Plant response rating, Nightshade (eastern black nightshade; [4]): 95; Plant response rating, Nightshade (eastern black nightshade; [5]): 100; Plant response rating, Velvetleaf (velvetleaf; [5]): 100; Plant response rating, Cocklebur (cocklebur; [10]): 0; Plant response rating, Cocklebur (cocklebur; [11]): 0; Cocklebur plant response rating (cocklebur; 500 g ai/ha): 60; Sedge, Umbrella plant response rating ([3]; 62 g ai/ha, scale 0 to 100): 80; Sedge, Umbrella plant response rating [3, 6]: 90; Sedge, Umbrella plant response rating [3, 7]: 90; Plant response rating, Sedge, Umbrella [3, 8]: 95"
C=CCNC(=O)c1cccc(NC(=O)c2nn(C(C)C)nc2CC)c1 [Compound 382],90,100,80,75,95,0,55,70,100,25,65,80,85,95,95,80,100,100,80,0,"Plant response rating (0 = no effect, 100 = complete control), Lambsquarters (lambsquarters; 125 g ai/ha): 100; Plant response rating, Lambsquarters (lambsquarters; [5]): 100; Plant response rating (0 = no effect, 100 = complete control), Goosegrass (goosegrass; 125 g ai/ha): 90; Plant response rating, Goosegrass (goosegrass; [5]): 100; Plant response rating (0 = no effect, 100 = complete control), Corn (corn; 125 g ai/ha): 50; Plant response rating, Corn (corn; [5]): 60; Plant response rating (0 = no effect, 100 = complete control), Johnsongrass (johnsongrass; 125 g ai/ha): 95; Plant response rating, Johnsongrass (johnsongrass; [5]): 100; Plant response rating, Nightshade (eastern black nightshade; [5]): 100; Plant response rating (0 = no effect, 100 = complete control), Velvetleaf (velvetleaf; 125 g ai/ha): 100; Plant response rating, Velvetleaf (velvetleaf; [5]): 100; Plant response rating (0 = no effect, 100 = complete control), Cocklebur (cocklebur; 125 g ai/ha, preemergence): 15; Plant response rating, Cocklebur (cocklebur; [11]): 20; Plant response rating, Cocklebur (cocklebur; 500 g ai/ha, scale 0 to 100 (0 no effect, 100 complete control), visual, 12 to 14 days, preemergence): 45; Sedge, Umbrella plant response rating ([3]; 62 g ai/ha, scale 0 to 100): 75; Sedge, Umbrella plant response rating [3, 6]: 80; Sedge, Umbrella plant response rating [3, 7]: 85; Plant response rating, Sedge, Umbrella [3, 8]: 90"

# Reference: patent US20060069132A1, “Azolecarboxamide herbicides” (priority 2004, published 2006)
